Data published in patent US20240342292A1, “Compounds for the Degradation of EGFR Kinase” (BeiGene Switzerland GmbH, priority 2021, published 2024).

Legend:
Del19/T790M/C797S EGFR = test: EGFR degradation HTRF assay in H1975-clone #28 (DTC) cells; type: cell-based; settings: H1975 # 28 DTC (Del19/T790M/C797S), 16h treatment; for DC50: HTRF; for Dmax (%): maximum percentage of degradation
Procedure, shortened: (§1)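 H1975 clones with endogenous EGFR knocked out and lentivirally expressed mutant EGFR treated 16 h at 37 °C with compounds, 8 doses from 10 uM, 5-fold dilutions, 0.2% DMSO. Lysates read by HTRF (665/620 nm) overnight; DC50 from four-parameter fit.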

L858R/T790M/C797S EGFR = molecular target: T1, L858R/T790M/C797S EGFR (Homo sapiens, UniProt P00533, C797S/L858R/T790M); test: EGFR degradation HTRF assay in H1975-clone #25 (LTC) cells; type: cell-based; settings: 16h treatment; for DC50: H1975 # 25-LTC (L858R/T790M/C797S), HTRF; for Dmax: NCI-H1975, H1975 # 25-LTC (L858R/T790M/C797S), maximum percentage of degradation
T1 construct: expressed in transfected cells; host or cells: H1975 clone #25 (lentiviral over-expression, endogenous EGFR knocked out by sgRNA)
T1 sequence (P00533 25-1210 T790M/C797S/L858R): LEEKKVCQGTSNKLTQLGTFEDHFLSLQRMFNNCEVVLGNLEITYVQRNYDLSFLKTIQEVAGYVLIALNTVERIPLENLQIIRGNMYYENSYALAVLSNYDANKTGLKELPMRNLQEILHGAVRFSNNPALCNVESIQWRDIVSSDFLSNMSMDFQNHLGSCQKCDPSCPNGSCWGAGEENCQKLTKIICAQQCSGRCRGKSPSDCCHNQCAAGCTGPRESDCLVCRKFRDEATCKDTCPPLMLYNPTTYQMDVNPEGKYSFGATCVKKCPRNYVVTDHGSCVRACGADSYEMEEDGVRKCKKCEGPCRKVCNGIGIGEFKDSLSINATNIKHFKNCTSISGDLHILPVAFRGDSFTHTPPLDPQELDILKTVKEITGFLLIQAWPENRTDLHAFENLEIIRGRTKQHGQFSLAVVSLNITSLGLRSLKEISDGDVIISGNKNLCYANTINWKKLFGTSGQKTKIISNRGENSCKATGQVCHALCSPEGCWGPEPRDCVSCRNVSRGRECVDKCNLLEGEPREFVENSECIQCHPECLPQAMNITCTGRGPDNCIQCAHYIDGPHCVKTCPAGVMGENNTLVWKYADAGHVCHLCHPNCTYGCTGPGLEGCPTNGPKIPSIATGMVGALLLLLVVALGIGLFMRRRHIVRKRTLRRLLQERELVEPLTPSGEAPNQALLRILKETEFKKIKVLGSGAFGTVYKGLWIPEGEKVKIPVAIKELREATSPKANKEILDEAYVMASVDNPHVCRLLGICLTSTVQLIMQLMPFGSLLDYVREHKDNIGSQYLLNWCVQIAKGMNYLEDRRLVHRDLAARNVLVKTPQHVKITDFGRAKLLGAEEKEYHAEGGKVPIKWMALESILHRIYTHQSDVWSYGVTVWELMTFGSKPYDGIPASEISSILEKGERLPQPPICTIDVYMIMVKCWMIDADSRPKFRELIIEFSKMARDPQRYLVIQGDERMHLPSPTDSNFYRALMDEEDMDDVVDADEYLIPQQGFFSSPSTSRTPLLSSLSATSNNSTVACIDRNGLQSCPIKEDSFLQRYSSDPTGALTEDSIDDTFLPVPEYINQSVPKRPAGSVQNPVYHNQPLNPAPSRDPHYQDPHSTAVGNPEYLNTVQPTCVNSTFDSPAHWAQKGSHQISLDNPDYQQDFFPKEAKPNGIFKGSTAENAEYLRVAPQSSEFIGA
Procedure, shortened: as §1

Row | DC50 (Del19/T790M/C797S EGFR) [pM] | DC50 (L858R/T790M/C797S EGFR) [pM] | Dmax (L858R/T790M/C797S EGFR) [%] | Structure (SMILES) | Dmax (%) (Del19/T790M/C797S EGFR)
1 | 836 | 1180 | 84.4 | COC[C@H]1CN(C(=O)[C@@H]2CCN(c3cc(F)c([C@H]4CCC(=O)NC4=O)c(F)c3)C2)CCN1Cc1ccc2c(c1)N1C[C@H](C)CCCOc3c(cnn3C)-c3cc(cc(C)n3)C(=O)/N=C/1N2 [Example 194, (R)-3-(2,6-difluoro-4-((R)-3-((R)-3-(methoxymethyl)-4-(((R,E)-1^1,2^6,7-trimethyl-3-oxo-5^2,5^3-dihydro-1^1H,5^1H-11-oxa-4-aza-5(2,1)-benzo[d]imidazola-2(2,4)-pyridina-1(4,5)-pyrazolacycloundecaphane-5′-yl)methyl)piperazine-1-carbonyl)pyrrolidin-1-yl)phenyl)piperidine-2,6-dione] | 79.44
2 | 712 | 731 | 85.5 | Cc1cc2cc(n1)-c1cnn(C)c1OCCC[C@@H](C)CN1/C(=N/C2=O)Nc2ccc(CN3CCN(C(=O)[C@@H]4CCN(c5cc(F)c([C@H]6CCC(=O)NC6=O)c(F)c5)C4)C[C@@H]3CO)cc21 [Example 195, (R)-3-(2,6-difluoro-4-((R)-3-((R)-3-(hydroxymethyl)-4-(((R,E)-1^1,2^5,7-trimethyl-3-oxo-5^2,5^3-dihydro-1^1H,5^1H-11-oxa-4-aza-5(2,1)-benzo[d]imidazola-2(2,4)-pyridina-(4,5)-pyrazolacycloundecaphane-5^6-yl)methyl)piperazine-1-carbonyl)pyrrolidin-1-yl)phenyl)piperidine-2,6-dione] | 76.37
3 | 598 | 716 | 87.1 | Cc1cc2cc(n1)-c1cnn(C)c1OCCC[C@@H](C)CN1/C(=N/C2=O)Nc2ccc(CN3CCN(C(=O)[C@@H]4CCN(c5cc(F)c([C@H]6CCC(=O)NC6=O)c(F)c5)C4)C[C@H]3CO)cc21 [Example 196, (R)-3-(2,6-difluoro-4-((R)-3-((S)-3-(hydroxymethyl)-4-(((R,E)-1^1,2^6,7-trimethyl-3-oxo-5^2,5^3-dihydro-1^1H,5^1H-11-oxa-4-aza-5(2,1)-benzo[d]imidazola-2(2,4)-pyridina-1(4,5)-pyrazolacycloundecaphane-56-yl)methyl)piperazine-1-carbonyl)pyrrolidin-1-yl)phenyl)piperidine-2,6-dione] | 78.44
4 | 752 | 638 | 76.5 | Cc1cc2cc(n1)-c1cnn(C)c1OCCC[C@@H](C)CN1/C(=N/C2=O)Nc2ccc(CN3CCN(C(=O)[C@@H]4CCN(c5cc(F)c([C@H]6CCC(=O)NC6=O)c(F)c5)C4)CC34COC4)cc21 [Example 199, (R)-3-(2,6-difluoro-4-((R)-3-(5-(((R,E)-1^1,2^6,7-trimethyl-3-oxo-5^2,5^3-dihydro-1^1H,5^1H-11-oxa-4-aza-5(2,1)-benzo[d]imidazola-2(2,4)-pyridina-1(4,5)-pyrazolacycloundecaphane-5^6-yl)methyl)-2-oxa-5,8-diazaspiro[3.5]nonane-8-carbonyl)pyrrolidin-1-yl)phenyl)piperidine-2,6-dione] | 73.3
5 | 1380 | 1220 | 86 | Cc1cc2cc(n1)-c1cnn(C)c1OCCC[C@@H](C)CN1/C(=N/C2=O)Nc2ccc(CN3CCN(C(=O)[C@@H]4CCN(c5cc(F)c([C@H]6CCC(=O)NC6=O)c(F)c5)C4)CC3=O)cc21 [Example 200, (R)-3-(2,6-difluoro-4-((R)-3-(3-oxo-4-(((R,E)-1^1,2^6,7-trimethyl-3-oxo-5^2,5^3-dihydro-1^1H,5^1H-11-oxa-4-aza-5(2,1)-benzo[d]imidazola-2(2,4)-pyridina-1(4,5)-pyrazolacycloundecaphane-5^6-yl)methyl)piperazine-1-carbonyl)pyrrolidin-1-yl)phenyl)piperidine-2,6-dione] | 73.04
6 | 1320 | 890 | 78.8 | COC[C@@H]1CN(Cc2ccc3c(c2)N2C[C@H](C)CCCOc4c(cnn4C)-c4cc(cc(C)n4)C(=O)/N=C/2N3)CCN1C(=O)[C@@H]1CCN(c2cc(F)c([C@H]3CCC(=O)NC3=O)c(F)c2)C1 [Example 202, (R)-3-(2,6-difluoro-4-((R)-3-((S)-2-(methoxymethyl)-4-(((R,E)-1^1,2^6,7-trimethyl-3-oxo-5^2,5^3-dihydro-1^1H,5^1H-li-oxa-4-aza-5(2,1)-benzo[d]imidazola-2(2,4)-pyridina-(4,5)-pyrazolacycloundecaphane-5^6-yl)methyl)piperazine-1-carbonyl)pyrrolidin-1-yl)phenyl)piperidine-2,6-dione] | 72.07
7 | 901 | 852 | 85.1 | Cc1cc2cc(n1)-c1cnn(C)c1OCCC[C@@H](C)CN1/C(=N/C2=O)Nc2ccc(CN3CCN(C(=O)[C@@H]4CCN(c5ccc(F)c6c5n(C)c(=O)n6C5CCC(=O)NC5=O)C4)CC3)cc21 (stereo partly drawn) [Example 211, 3-(7-fluoro-3-methyl-2-oxo-4-((R)-3-(4-(((R,E)-1^1,2^6,7-trimethyl-3-oxo-5^2,5^3-dihydro-1^1H,5^1H-11-oxa-4-aza-5(2,1)-benzo[d]imidazola-2(2,4)-pyridina-1(4,5)-pyrazolacycloundecaphane-5^6-yl)methyl)piperazine-1-carbonyl)pyrrolidin-1-yl)-2,3-dihydro-1H-benzo[d]imidazol-1-yl)piperidine-2,6-dione] | 75.24
8 | 1320 | 2590 | 79.4 | Cc1cc2cc(n1)-c1cnn(C)c1OCCC[C@@H](C)CN1/C(=N/C2=O)Nc2ccc(N(C)C3CCN(C4CCN(c5cc(F)c([C@H]6CCC(=O)NC6=O)c(F)c5)CC4)CC3)cc21 [Example 214, (R)-3-(2,6-difluoro-4-(4-(methyl((R,E)-1^1,2^6,7-trimethyl-3-oxo-5^2,5^3-dihydro-1^1H,5^1H-11-oxa-4-aza-5(2,1)-benzo[d]imidazola-2(2,4)-pyridina-1(4,5)-pyrazolacycloundecaphane-5-yl)amino)-[1,4′-bipiperidin]-1′-yl)phenyl)piperidine-2,6-dione] | 72.32
9 | 3020 | 9550 | 81.8 | Cc1cc2cc(n1)-c1cnn(C)c1OCCC[C@@H](C)CN1/C(=N/C2=O)Nc2ccc(CN3CCC(N4CCN(C(=O)[C@H]5CCN(c6ccc7c(c6)C(=O)N(C6CCC(=O)NC6=O)C7=O)C5)CC4)CC3)cc21 (stereo partly shown) [Example 216] | 82.64
10 | 901 | 705 | 94 | Cc1cc2cc(n1)-c1cnn(C)c1OCCC[C@@H](C)CN1/C(=N/C2=O)Nc2ccc(C(=O)N3CCC4(CC3)CN(C(=O)C3CN(c5cc(F)c([C@H]6CCC(=O)NC6=O)c(F)c5)C3)C4)cc21 [Example 221, (R)-3-(2,6-difluoro-4-(3-(7-((R,E)-1^1,2^6,7-trimethyl-3-oxo-5^2,53-dihydro-1^1H,5^1H-11-oxa-4-aza-5(2,1)-benzo[d]imidazola-2(2,4)-pyridina-1(4,5)-pyrazolacycloundecaphane-5^6-carbonyl)-2,7-diazaspirononane-2-carbonyl)azetidin-1-yl)phenyl)piperidine-2,6-dione] | 85.41
11 | 1790 | 1270 | 86.9 | Cc1cc2cc(n1)-c1cnn(C)c1OCCC[C@@H](C)CN1/C(=N/C2=O)Nc2ccc(C(=O)N3CC4(C3)CN(C(=O)C3CN(c5cc(F)c([C@H]6CCC(=O)NC6=O)c(F)c5)C3)C4)cc21 [Example 229, (R)-3-(2,6-difluoro-4-(3-(6-((R,E)-1^1,2^6,7-trimethyl-3-oxo-5^2,5^3-dihydro-1^1H,5^1H-11-oxa-4-aza-5(2,1)-benzo[d]imidazola-2(2,4)-pyridina-1(4,5)-pyrazolacycloundecaphane-5^6-carbonyl)-2,6-diazaspiroheptane-2-carbonyl)azetidin-1-yl)phenyl)piperidine-2,6-dione] | 78.12
12 | 292 | 318 | 92 | Cc1cc2cc(n1)-c1cnn(C)c1OCCC[C@@H](C)CN1/C(=N/C2=O)Nc2cc(F)c(C(=O)N(C)C3CCN(CCc4cc(F)c([C@H]5CCC(=O)NC5=O)c(F)c4)CC3)cc21 [Example 232, (R,E)-N-(1-(4-((R)-2,6-dioxopiperidin-3-yl)-3,5-difluorophenethyl)piperidin-4-yl)-5^5-fluoro-N,1^1,2^6,7-tetramethyl-3-oxo-5^2,5^3-dihydro-1^1H,5^1H-11-oxa-4-aza-5(2,1)-benzo[d]imidazola-2(2,4)-pyridina-1(4,5)-pyrazolacycloundecaphane-5^6-carboxamide] | 82.7
13 | 806 | 1050 | 91.2 | Cc1cc2cc(n1)-c1c(C)nn(C)c1OCCC[C@@H](C)CN1/C(=N/C2=O)Nc2ccc(C(=O)N(C)C3CCN(CCc4cc(F)c([C@H]5CCC(=O)NC5=O)c(F)c4)CC3)cc21 [Example 233, (R,E)-N-(1-(4-((R)-2,6-dioxopiperidin-3-yl)-3,5-difluorophenethyl)piperidin-4-yl)-N,1^1,1^3,2^6,7-penta methyl-3-oxo-5^2,5^3-dihydro-1^1H,5^1H-11-oxa-4-aza-5(2,1)-benzo[d]imidazola-2(2,4)-pyridina-1(4,5)-pyrazolacycloundecaphane-5^6-carboxamide] | 86.73
